Assays:
Format in all cases: in vivo
Kochia (Kochia scoparia) [1] = test: Test A preemergence; details: Bassia scoparia, pre-emergence, 240 h, 0 to 100 scale where 0 is no effect and 100 is complete control, read-out: Kochia plant response rating
How it was run: (§1)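 Treatment is preemergence as a directed soil spray after planting, or postemergence at the one- to two-leaf stage, with test chemical in a non-phytotoxic solvent mixture plus surfactant. Plants stay in the greenhouse about 10 d before visual injury scoring on a 0 to 100 scale versus untreated controls.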

[2] = system: barnyardgrass (Echinochloa crus-galli); test: Test A preemergence; details: Echinochloa crus-galli, pre-emergence, 240 h, 0 to 100 scale where 0 is no effect and 100 is complete control, read-out: Barnyardgrass plant response rating
How it was run: as §1

[3] = system: giant foxtail (Setaria faberii); test: Test A preemergence; details: Setaria faberi, pre-emergence, 240 h, 0 to 100 scale where 0 is no effect and 100 is complete control, read-out: Foxtail, Giant plant response rating
How it was run: as §1

[4] = system: pigweed (Amaranthus retroflexus); test: Test A preemergence; details: Amaranthus retroflexus, pre-emergence, 240 h, 0 to 100 scale where 0 is no effect and 100 is complete control, read-out: Pigweed plant response rating
[5] = system: ragweed (common ragweed, Ambrosia elatior); test: Test A preemergence; details: Ambrosia artemisiifolia, pre-emergence, 240 h, 0 to 100 scale where 0 is no effect and 100 is complete control, read-out: Ragweed plant response rating
How it was run: as §1

[6] = system: ryegrass, Italian (Italian ryegrass, Lolium multiflorum); test: Test A preemergence; details: Lolium multiflorum, pre-emergence, 240 h, 0 to 100 scale where 0 is no effect and 100 is complete control, read-out: Ryegrass, Italian plant response rating
How it was run: as §1

[7] = system: Galium (catchweed bedstraw, Galium aparine); test: Test A postemergence; details: Galium, post-emergence, 240 h, Postemergence, read-out: Galium plant response rating (0 to 100 scale)
How it was run: as §1

Kochia (Kochia scoparia) [8] = test: Test A postemergence; details: Bassia scoparia, post-emergence, 240 h, Postemergence, read-out: Kochia plant response rating (0 to 100 scale)
How it was run: as §1

[9] = system: barnyardgrass (Echinochloa crus-galli); test: Test A postemergence; details: Echinochloa crus-galli, post-emergence, 240 h, Postemergence
How it was run: as §1

[10] = system: blackgrass (Alopecurus myosuroides); test: Test A postemergence; details: Alopecurus myosuroides, post-emergence, 240 h, Postemergence, read-out: Blackgrass plant response rating (0 to 100 scale)
How it was run: as §1

corn (Zea mays) = test: Test A postemergence; details: Zea mays, post-emergence, 240 h, Postemergence, read-out: Corn plant response rating (0 to 100 scale)
How it was run: as §1

[11] = system: giant foxtail (Setaria faberii); test: Test A postemergence; details: Setaria faberi, post-emergence, 240 h, Postemergence, read-out: Foxtail, Giant plant response rating (0 to 100 scale)
How it was run: as §1

[12] = system: pigweed (Amaranthus retroflexus); test: Test A postemergence; details: Amaranthus retroflexus, post-emergence, 240 h, Postemergence, read-out: Pigweed plant response rating (0 to 100 scale)
How it was run: as §1

[13] = system: ragweed (common ragweed, Ambrosia elatior); test: Test A postemergence; details: Ambrosia artemisiifolia, post-emergence, 240 h, Postemergence, read-out: Ragweed plant response rating (0 to 100 scale)
How it was run: as §1

[14] = system: ryegrass, Italian (Italian ryegrass, Lolium multiflorum); test: Test A postemergence; details: Lolium multiflorum, post-emergence, 240 h, Postemergence, read-out: Ryegrass, Italian plant response rating (0 to 100 scale)
How it was run: as §1

[15] = system: wheat (Triticum aestivum); test: Test A postemergence; details: Triticum aestivum, post-emergence, 240 h, Postemergence, read-out: Wheat plant response rating (0 to 100 scale)
How it was run: as §1

[16] = system: barnyardgrass (Echinochloa crus-galli); test: Test B flooded paddy test; details: Echinochloa crus-galli, 250 g ai/ha, Flood; 0 to 100 scale where 0 is no effect and 100 is complete control; read-out: Barnyardgrass plant response rating
How it was run: (§2)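 Percent control, visually estimated after 13–15 d in the greenhouse on a 0–100 basis, compares treated pots with untreated ones; compound was put into paddy water 3 cm above the soil when plants had two leaves.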

[17] = system: ducksalad (Heteranthera limosa); test: Test B flooded paddy test; details: Heteranthera limosa, 250 g ai/ha, Flood; 0 to 100 scale where 0 is no effect and 100 is complete control; read-out: Ducksalad plant response rating
How it was run: as §2

rice (Oryra sativa) = test: Test B flooded paddy test; details: Oryza sativa, 250 g ai/ha, Flood; 0 to 100 scale where 0 is no effect and 100 is complete control; read-out: Rice plant response rating
How it was run: as §2

[18] = system: sedge, umbrella (small-flower umbrella sedge, Cyperus difformis); test: Test B flooded paddy test; details: Cyperus difformis, 250 g ai/ha, Flood; 0 to 100 scale where 0 is no effect and 100 is complete control; read-out: Sedge, Umbrella plant response rating
How it was run: as §2

[19] = 125 g ai/ha, preemergence, visual injury rating, approximately 10 d
[20] = 125 g ai/ha, visual rating about 10 d after treatment
[21] = 31 g ai/ha, 0 is no effect, 100 is complete control

Work on `CN1C[C@H](c2cccc(C#N)c2)[C@@H](C(=O)Nc2ccccc2F)C1=O` [Compound 1285] yielded a pest or weed control at 31 g/ha (Kochia (Kochia scoparia) [1]; 31 g ai/ha, Preemergence) of 20%, a pest or weed control at 125 g/ha (Kochia (Kochia scoparia) [1]; [19]) of 30% and a pest or weed control at 31 g/ha ([2]; 31 g ai/ha, Preemergence) of 40%. The pest or weed control at 125 g/ha [2, 19] was 90%, the pest or weed control at 31 g/ha ([3]; 31 g ai/ha, Preemergence) was 90% and the pest or weed control at 125 g/ha [3, 19] was 100%. The pest or weed control at 31 g/ha ([4]; 31 g ai/ha, Preemergence) was 0%, the pest or weed control at 125 g/ha [4, 19] was 0% and the pest or weed control at 31 g/ha ([5]; 31 g ai/ha, Preemergence) was 30%. For the same compound, the pest or weed control at 125 g/ha [5, 19] was 30%, the pest or weed control at 31 g/ha ([6]; 31 g ai/ha, Preemergence) was 0% and the pest or weed control at 125 g/ha [6, 19] was 0%. The pest or weed control at 125 g/ha [7, 20] was 30%, the pest or weed control at 31 g/ha [7, 21] was 20% and the pest or weed control at 125 g/ha (Kochia (Kochia scoparia) [8]; [20]) was 0%. It also gave a pest or weed control at 31 g/ha (Kochia (Kochia scoparia) [8]; [21]) of 0%, a pest or weed control at 125 g/ha ([9]; 125 g ai/ha, visual rating about 10 d after treatment, read-out: Barnyardgrass plant response rating (0 to 100 scale, 0 no effect, 100 complete control)) of 80% and a pest or weed control at 31 g/ha ([9]; 31 g ai/ha, 0 is no effect, 100 is complete control, read-out: Barnyardgrass plant response rating (0 to 100 scale)) of 60%. The pest or weed control at 125 g/ha [10, 20] was 0%, the pest or weed control at 31 g/ha [10, 21] was 0% and the plant injury at 125 g/ha (corn (Zea mays); [20]) was 0%. For the same compound, the plant injury at 31 g/ha (corn (Zea mays); [21]) was 0%, the pest or weed control at 125 g/ha [11, 20] was 70% and the pest or weed control at 31 g/ha [11, 21] was 40%. For the same compound, the pest or weed control at 125 g/ha [12, 20] was 20%, the pest or weed control at 31 g/ha [12, 21] was 20% and the pest or weed control at 125 g/ha [13, 20] was 0%. For the same compound, the pest or weed control at 31 g/ha [13, 21] was 0%, the pest or weed control at 125 g/ha [14, 20] was 0% and the pest or weed control at 31 g/ha [14, 21] was 0%. For the same compound, the plant injury at 125 g/ha [15, 20] was 0%, the plant injury at 31 g/ha [15, 21] was 0% and the pest or weed control at 250 g/ha [16] was 60%. The pest or weed control at 250 g/ha [17] was 90%, the pest or weed control at 250 g/ha (rice (Oryra sativa)) was 25% and the pest or weed control at 250 g/ha [18] was 0%.
